Experimental data as given in the RepoRT retention time repository.

Assay: RP, Waters ACQUITY UPLC HSS T3, 0.1 mL/min; A: water + 0.01% formic acid; B: acetonitrile + 0.01% formic acid; gradient (min/%B) 0/10 38/45 45/45 55/0 60/0
Details: stereoisomer not certain

Structure (SMILES) | LC retention time [min]
CC(=O)C1(O)CCC2C3CCC4=CC(=O)CCC4(C)C3CCC21C (stereo not drawn) [Progesterone-17-hydroxy] | 33.9
COc1cc(OC)nc(NC(=O)NS(=O)(=O)c2ncccc2C(=O)N(C)C)n1 [Nicosulfuron] | 15.2
C#CC(C)(C)NC(=O)c1cc(Cl)cc(Cl)c1 [Propyzamide] | 35.6
Nc1ccccc1 [Aniline] | 3.1
CON(C)C(=O)Nc1ccc(Cl)c(Cl)c1 [Linuron] | 31.7
CCOP(=S)(OCC)Oc1nc(Cl)c(Cl)cc1Cl [Chlorpyrifos] | 45.5
CC(C)N(C(=O)CCl)c1ccccc1 [Propachlore] | 25.8
COC(=O)c1ccc(O)cc1 [Methylparaben] | 10
CC1CCC2C(C)C3C(CC4C5CC=C6CC(O)CCC6(C)C5CCC43C)N2C1 (stereo not drawn) [Solanidine] | 24.5
CCCOC(=O)c1ccc(O)cc1 [Propylparaben] | 22
CCOC(=O)CC(SP(=S)(OC)OC)C(=O)OCC (stereo not drawn) [Malathion] | 40.8
CCCOc1nn(C(=O)NS(=O)(=O)c2ccccc2C(=O)OC)c(=O)n1C [Propoxycarbazone] | 22.1
COC(=O)Nc1nc2ccccc2[nH]1 [Carbendazim] | 5.69
COP(=S)(S)OC [Dimethyldithiophosphate] | 2.95
CC(=O)Oc1ccccc1C(=O)O [Acetylsalicylic acid] | 8.55
CNC1CCC(c2ccc(Cl)c(Cl)c2)c2ccccc21 (stereo not drawn) [Sertraline] | 24.3
C#CC1(O)CCC2C3CCc4cc(O)ccc4C3CCC21C (stereo not drawn) [Ethinylestradiol] | 31.6
COC(=O)c1ccccc1S(=O)(=O)NC(=O)Nc1nc(C)nc(OC)n1 [Metsulfuron-methyl] | 19.4
CCCN(CCOc1c(Cl)cc(Cl)cc1Cl)C(=O)n1ccnc1 [Prochloraz] | 38.7
CC12CCC(=O)C=C1CCC1C2C(O)CC2(C)C1CCC2(O)C(=O)CO (stereo not drawn) [Hydrocortisone] | 15.9
[O-][n+]1nc(-n2ccnc2)nc2ccc(Cl)cc21 [Triazoxide] | 16
COC(=O)N(OC)c1ccccc1COc1ccn(-c2ccc(Cl)cc2)n1 [Pyraclostrobine] | 43.5
CC12CCC3c4cc(O)c(O)cc4CCC3C1CCC2=O (stereo not drawn) [Estrone-2-hydroxy] | 24.6
CCNc1nc(NC(C)(C)C)nc(SC)n1 [Terbutryne] | 28

Structure (SMILES) | LC retention time [min]
Cc1cc(C2CC2)nc(Nc2ccccc2)n1 [Cyprodinil] | 33.2
CC1(C)CCC(=Cc2ccc(Cl)cc2)C1(O)Cn1cncn1 (stereo not drawn) [Triticonazole] | 33.8
CC1=NNC(=O)N(N=Cc2cccnc2)C1 [Pymetrozine] | 26.7
Cn1c(=O)c2c(ncn2C)n(C)c1=O [Caffeine] | 5.71
CN(C)C(=O)Nc1ccc(Cl)c(Cl)c1 [Diuron] | 23.7
CNC(=O)N(C)c1nc2ccccc2s1 [Methabenzthiazuron] | 19.4
NCCc1ccc(O)c(O)c1 [Dopamine] | 3.88
COCC(C)N(C(=O)CCl)c1c(C)csc1C (stereo not drawn) [Dimethenamid] | 32.5
Nc1c(Cl)c(F)nc(OCC(=O)O)c1Cl [Fluroxypyr] | 14.4
CC(=O)C1CCC2C3CCC4=CC(=O)CCC4(C)C3CCC12C (stereo not drawn) [Progesterone] | 42.1
CC(Oc1ccc(Cl)cc1Cl)C(=O)O (stereo not drawn) [Dichlorprop] | 10
CCCN(CCC)c1c([N+](=O)[O-])cc(S(N)(=O)=O)cc1[N+](=O)[O-] [Oryzalin] | 41.2
CC(C)NC(=O)N1CC(=O)N(c2cc(Cl)cc(Cl)c2)C1=O [Iprodione] | 39.9
CCNc1nc(Cl)nc(NCC)n1 [Simazine] | 14.5
NC(=O)Nc1ccc(Cl)c(Cl)c1 [1-(3,4-Dichlorophenyl)urea] | 16.9
CC(C)c1ccc(NC(=O)N(C)C)cc1 [Isoproturon] | 23.4
Cc1ccc(C(=O)O)c(Cl)c1 [2-chloro-4-methylbenzoic acid] | 44.3
CCNc1nc(N)nc(Cl)n1 [Atrazine-desisopropyl] | 6.98
CCCC1COC(Cn2cncn2)(c2ccc(Cl)cc2Cl)O1 (stereo not drawn) [Propiconazole] | 41.7
Nc1ccc(O)cc1 [4-Aminophenol] | 1.3
CN1CCC23c4c5ccc(O)c4OC2C(O)C=CC3C1C5 (stereo not drawn) [Morphine] | 4.26
COc1ccc(C(CN(C)C)C2(O)CCCCC2)cc1 (stereo not drawn) [Venlafaxine] | 9.84
CNC(=O)Oc1cccc2c1OC(C)(C)C2 [Carbofuran] | 18.6
COc1nc(C)nc(NC(=O)NS(=O)(=O)c2ccccc2CCC(F)(F)F)n1 [Prosulfuron] | 34.5

Structure (SMILES) | LC retention time [min]
O=[N+]([O-])/N=C1\NCCN1Cc1ccc(Cl)nc1 [Imidacloprid] | 8.57
CCNc1nc(Cl)nc(NC(C)(C)C)n1 [Terbuthylazine] | 30.6
CCCCCC(O)C=CC1C(O)CC(=O)C1CC=CCCCC(=O)O (stereo not drawn) [Prostaglandin E2] | 26.5
CC(=O)Nc1ccc(O)cc1 [Paracetamol] | 4.98
COC(=O)c1ccc(CNS(C)(=O)=O)cc1S(=O)(=O)NC(=O)Nc1nc(OC)cc(OC)n1 [Mesosulfuron-methyl] | 26.6
O=C(O)c1ccccc1O [Salicylic acid] | 8.4
O=C(Nc1ccccc1)N(Cc1ccc(Cl)cc1)C1CCCC1 [Pencycuron] | 43.7
CN1COCN(Cc2cnc(Cl)s2)C1=N[N+](=O)[O-] [Thiamethoxam] | 6.97
CCOP(=O)(SC(C)CC)N1CCSC1=O (stereo not drawn) [Fosthiazate] | 22.2
COc1cc(OC)n2nc(NS(=O)(=O)c3c(C(F)(F)F)ccnc3OC)nc2n1 [Pyroxsulam] | 20.3
CCC(C)n1c(=O)[nH]c(C)c(Br)c1=O (stereo not drawn) [Bromacil] | 14.3
CSc1nnc(C(C)(C)C)c(=O)n1N [Metribuzine] | 15.6
O=C(C=CC=Cc1ccc2c(c1)OCO2)N1CCCCC1 [Piperine] | 36.4
COC=C(C(=O)OC)c1ccccc1Oc1cc(Oc2ccccc2C#N)ncn1 [Azoxystrobin] | 38
CN1C(=O)CCC1c1cccnc1 (stereo not drawn) [Cotinine] | 4.31
CC12CCC3c4ccc(O)cc4CCC3C1CC(O)C2O (stereo not drawn) [Estriol] | 11.7
Cc1nnc(-c2ccccc2)c(=O)n1N [Metamitron] | 8.55
CC(C)(C)C(O)(CCc1ccc(Cl)cc1)Cn1cncn1 (stereo not drawn) [Tebuconazole] | 39.5
CCCCCC=CCC=CC=CC=CC(SCC(N)C(=O)NCC(=O)O)C(O)CCCC(=O)O (stereo not drawn) [Leukotriene D4] | 33
COc1cc(OC)n2nc(S(=O)(=O)Nc3c(Cl)ccc(C)c3Cl)nc2n1 [Metosulam] | 24.8
COc1ccc2c3c1OC1C(O)C=CC4C(C2)N(C)CCC341 (stereo not drawn) [Codeine] | 5.12
CN1CCCC1c1cccnc1 (stereo not drawn) [Nicotine] | 3.37
CC(Cc1ccc(C(C)(C)C)cc1)CN1CCCCC1 (stereo not drawn) [Fenpropidine] | 26.2
CNC(=O)c1cc(Cl)cc(C)c1NC(=O)c1cc(Br)nn1-c1ncccc1Cl [Chlorantraniliprole] | 30.9

Structure (SMILES) | LC retention time [min]
CN1C(=O)CCC1c1ccc[n+](C2OC(C(=O)[O-])C(O)C(O)C2O)c1 (stereo not drawn) [Cotinine glucuronide] | 1.4
CON(C)C(=O)Nc1ccc(Br)cc1 [Metobromuron] | 24.5
CNC(=O)Nc1ccc(Cl)c(Cl)c1 [1-(3,4-Dichlorophenyl)-3-methylurea] | 20.5
CC12CCC3c4ccc(O)cc4CCC3C1CCC2=O (stereo not drawn) [Estrone] | 31.6
CCC(Oc1ccc(F)c(C(F)(F)F)c1)C(=O)NCc1ccccc1 (stereo not drawn) [Beflubutamid] | 42.7
CC(C(=O)O)c1cccc(C(=O)c2ccccc2)c1 (stereo not drawn) [Ketoprofen] | 28.3
O=C(O)COc1nc(Cl)c(Cl)cc1Cl [Triclopyr] | 25
COC(=O)c1ccc(I)cc1S(=O)(=O)NC(=O)Nc1nc(C)nc(OC)n1 [Iodosulfuron-methyl] | 30.4
CCc1cccc(CC)c1N(COC)C(=O)CCl [Alachlor] | 39.4
CSc1nc(NC2CC2)nc(NC(C)(C)C)n1 [Irgarol] | 29.9
CN1CCCC1c1ccc[n+](C2OC(C(=O)[O-])C(O)C(O)C2O)c1 (stereo not drawn) [Nicotine Glucuronide] | 1.3
CC(C)N(Cc1ccccc1)C(=O)C(C)(C)C [Tebutame] | 39
Cc1cccc(C)c1N(Cn1cccn1)C(=O)CCl [Metazachlore] | 26.6
CCCCCC=CCC(O)C=CC=CC=CC(O)CCCC(=O)O (stereo not drawn) [Leukotriene B4] | 39.5
CC12CCC3c4cc(O)c(O)cc4CCC3C1CCC2O (stereo not drawn) [Estradiol-2-hydroxy] | 21.5
CC(Cc1ccc(C(C)(C)C)cc1)CN1CC(C)OC(C)C1 (stereo not drawn) [Fenpropimorph] | 30.1
COc1nc(NC(=O)NS(=O)(=O)c2ccccc2C(F)(F)F)nc(C(F)(F)F)n1 [Tritosulfuron] | 35.9
Nc1nc2ccccc2[nH]1 [Aminobenzimidazole] | 4.74
Oc1ccccc1-c1ccccc1 [2-Phenylphenol] | 30.2
CCC(C)C(=O)OC1CC(O)C=C2C=CC(C)C(CCC(O)CC(O)CC(=O)O)C21 (stereo not drawn) [Pravastatin] | 20.5
CNC1=C(c2cccc(C(F)(F)F)c2)C(=O)C(c2ccccc2)O1 (stereo not drawn) [Flurtamone] | 34.1
